Earlier results as cited in patent publication US9365559B2, “Crystal form of Dabrafenib and preparation method of use thereof” (Hangzhou Pushai Pharmaceutical Technology Co., LTD., priority 2013, dated 2016).

Key:
[1] = system: BRAFV600E-mutan melanoma; settings: patients with BRAFV600E-mutan melanoma; cited from earlier work
[2] = system: one or more Raf-family kinases; settings: disclosed in WO2009/137391A2 and U.S. Pat. No. 7,994,185B2; cited from earlier work

In the case of `CC(C)(C)c1nc(-c2cccc(NS(=O)(=O)c3c(F)cccc3F)c2F)c(-c2ccnc(N)n2)s1` [Dabrafenib, N-[3-[5-(2-aminopyrimidin-4-yl)-2-(tert-butyl)thiazo-4-lyl]-2-fluorophenyl]-2,6-difluorobenzenesulfonamide], the safety profile [1] is given as “acceptable safety profile”, the therapeutical activity [1] is given as “has therapeutical activities” and the “inhibitory effect on Raf-family kinases” value [2] is given as “has the inhibitory effection”.
